Test results: patent publication US5411942A, “Peptide derivative, pharmaceutical preparation containing it and method for treatment of glaucoma” (Carlbiotech Ltd. A/S, priority 1989, dated 1995)
Peptide text beside a SMILES is read from it. * marks the point of attachment. Acm = CC(=O)NC*

Experiments:
mice = test: Intravenous tolerance in mice; type: in vivo; conditions: doses as high as 40 mg/kg intravenously
rats [1] = test: Intravenous tolerance in rats; type: in vivo; conditions: doses as high as 40 mg/kg intravenously
rats [2] = test: Subcutaneous toxicity in rats, also prolonged for a month; type: in vivo; conditions: subcutaneous administration of similar doses in rats, also prolonged treatment for a month
blood pressure = conditions: e.g. at 10 mg/kg in rats
Salmonella strains = conditions: Ames test on Salmonella strains
rabbit's eye = conditions: 5% solution as eye drops in rabbit's eye, even after treatment over a month
anterior sclera = conditions: Ussing chamber, glutathione bicarbonate Ringer's solution
[3] = test system: antibodies in serum samples; conditions: serum of rats treated subcutaneously for one month in large doses
[4] = test system: stress induced ocular hypertensive rabbits; test: Stress induced ocular hypertension in the rabbit eye, treatment started after pressure elevation; type: in vivo; conditions: for IOP lowering efficiency in relation to Timolol / Initial Pressure (Unstressed) / Pressure after 5 days of stress (Treatment starts) / Pressure after 10 days of stress (5 days of treatment) / Change in IOP: Example 6; for Initial Pressure (Unstressed): baseline before stress; for Pressure after 5 days of stress (Treatment starts) / Pressure after 5 days: before treatment; for Pressure after 10 days of stress (5 days of treatment): stress continued; for Change in IOP: day 10 versus day 5; for Pressure after 5 days / Initial Pressure / Pressure after 10 days (5 days of treatment): Example 8; for Pressure after 5 days: after 5 day stress induction; for Initial Pressure: baseline; for Pressure after 10 days (5 days of treatment): 2 drops four times for 5 days
Procedure: (§1) The main feature of this clinical model is a stress induced elevation of the intraocular pressure in the rabbit eye above the initial and normal value. The stress is exerted, i.e. applied, in the form of measuring the pressure (at 12 hour intervals) with the help of a SHIOTZ-Tonometer, which is loaded with 7.5 grams.
(§2) Adult rabbits of random breed and sex in groups of n=3-10 were employed. Weight 2,5-3,0 kg. The peptide was a freeze-dried powder, and was applied to the rabbit eye as a powder, or as drops, dissolved in 0.9% NaCl aqueous solution. Positive control was the commercial glaucoma drugs, either timololor pilocarpin, and negative control was 0.9% NaCl solution in water.
on stress induced ocular hypertensive rabbits. […] The amount of peptide per treatment was thus 3.75 mg which corresponds on a molar basis to the amount of Timolol used per treatment.
The local treatment was started on day 5 of glaucoma induction (i.e. afer 10 stress units), and the stress, that is the trauma, was continued during the treatment with the peptide.
A 1% and 0.1% solution of the peptide in 0.9% NaCl aqueous solution was applied four times (2 drops each time) for 5 days after an initial 5 day stress induction period. (Stress units at 12 hour intervals).

[5] = test system: experimentally hypertensive rabbit eye; test: Antagonizing effect on stress induced intraocular pressure in the rabbit eye, treatment simultaneous with stress; type: in vivo; conditions: for Change in pressure / Pressure after 5 1/5 / Initial Pressure: Example 9; for Change in pressure / Pressure after 5 1/5: 11 stress units, peptides as drops of 0.5% solution 3× daily; for Initial Pressure: baseline
Procedure: as §1, §2
20 mg peptide was dissolved in 0.6 ml 0.9% NaCl aqueous solution and applied in aliquots of 60 μl four times daily over a period of 2.5 days.
The treatment was started at the beginning of the experiment simultaneously with stress units. Five stress units were applied at 12 hour intervals.
Stress units were applied at 12 hour intervals over a period of 51/2 days, i.e. 11 stress units. The peptides were applied 3× daily over this period as drops of a 0.5% solution in 0.9% NaCl in aqueous solutions.
Stress units were applied at 12 hour intervals over a period of 51/2 days, i.e. 11 stress units. The peptides were applied 3× daily over this period as drops of a 1.0% solution in 0.9% NaCl in aqueous solution.

[6] = test system: water load induced hypertension in the rabbit eye; test: Water load model, intraocular pressure in rabbits' eyes; type: in vivo; conditions: single dose; for AUC: area under Δ IOP-time curve
Procedure: The findings of intraocular pressure lowering effects in the stress induced rabbit model has been confirmed and further studied by using another elevated eye pressure rabbit model. In this model, the widely applied water load model, elevation of the intraocular pressure is achieved by injecting a large volume of sterile water intraperitoneally into the rabbits. Following onset of eye drop treatment in one eye while the other eye is treated with saline placebo, the intraocular pressure of both eyes is then measured at various intervals and the pressure difference between the eyes is taken as an expression of the pharmaceutical effect. In these experiments, pilocarpine, a well-known pressure lowering cholinergic agent, was used as positive control.
The studies utilized a "water load" animal model.
Thirty minutes before drug solution installation, rabbits were injected intraperitonally with 60 ml/kg of sterile distilled water for injection (30° C.) spiked with an antibiotic mixture (Sigma P9032).
At time zero, 50 μl of a drug solution was instilled to one eye and an equal volume of a saline solution was instilled to the other eye. The intraocular pressure in each eye was monitored at the time points indicated. The change in intraocular pressure (IOP) at each time point is computed by subtracting the IOP in the dosed eye from that in the undosed eye.
From these plots was assessed the maximal IOP effect, the time to reach this and the time for returning to a zero or insignificant level of intraocular pressure lowering effect. These figures may be taken as a measure of potency and duration of effect. As a measure of the full pharmaceutical effect at various dose levels was taken a sum figure of the area under the curves (AUC).
A 0.5% solution of the peptides or 2.6% pilocarpine nitrate (positive control) in 0.9% NaCl aqueous solution was applied in one eye and 0.9% Nacl, also acting as negative control in the other eye, an IOP was measured in both eyes for 3 hours.
A 0.25%, 0.5% of 1.0% solution of the peptides in 0.9% aqueous NaCl solution was applied in one eye and 0.9% NaCl to the other eye and IOP was measured in both eyes for 3 hours.

[7] = test system: cultured bovine trabecular meshwork cells; test: Cultured bovine trabecular meshwork cells incubated with peptide; type: cell-based
Text: The mechanism, or mechanisms, by way of which the peptides according to the invention work, is so far not known in detail and may be of hitherto unknown types or related to some known mechanisms. With the apparent lack of β-blocking effects, other known mechanisms could be effects on the enzyme carbo-anhydrase or effects on aqueous humour outflow. Some indications of mechanisms of the latter type have been found in in vitro studies. […] The significant decrease in glycosamine uptake with normal synthesis of glycoproteins like fibronectin is taken to indicate an influence on the formation of glycosamino glycans, an important parameter in the regulation of outflow of aqueous humour from the eye.

[8] = test system: freshly excised bulbar conjunctiva; conditions: Ussing chamber, glutathione bicarbonate Ringer's solution
[9] = Example 11, 2.6% pilocarpine nitrate
[10] = 0.5% peptide, 3.75 mg powder 4× daily
[11] = cell cultures incubated with the peptide

Compound: CC(=O)NCSC[C@H](NC(=O)[C@@H](NC(=O)CNC(=O)[C@H](CC(C)C)NC(=O)[C@@H](N)CC(N)=O)C(C)C)C(N)=O [AsnLeuGlyValCys(Acm)NH2, H-Asn-Leu-Gly-Val-Cys(Acm)-NH2] (H-NLGVC(Acm)-NH2)
- tolerance of intravenous doses (mice): easily tolerated
- tolerance of intravenous doses (rats [1]): easily tolerated
- toxic or adverse effects (rats [2]): no toxic or adverse effects
- effect on blood pressure (blood pressure): no effect on blood pressure
- mutagenicity classification (Salmonella strains): non-mutagenic
- anaesthetic effects (rabbit's eye): neither anaesthetic effects
- irritant effects (rabbit's eye): nor irritant effects
- penetration through tissue (anterior sclera): found to penetrate scleral tissue
- detection of antibodies by ELISA [3]: not been possible to detect such antibodies

Compound: CC(C)(C)NC[C@H](O)COc1nsnc1N1CCOCC1 [Timolol, reference compound]
- IOP lowering efficiency in relation to Timolol ([4]; 0.25% Timolol): 100%
- Initial Pressure (Unstressed) ([4]; 0.25% Timolol group): 19.0 mm Hg
- Pressure after 5 days of stress (Treatment starts) ([4]; 0.25% Timolol group): 30.0 mm Hg
- Pressure after 10 days of stress (5 days of treatment) ([4]; 0.25% Timolol): 19.5 mm Hg
- Change in IOP ([4]; 0.25% Timolol): -10.5 mm Hg
- Change in pressure [5]: +1 mm Hg
- Pressure after 5 1/5 [5]: 16 mm Hg
- Initial Pressure [5]: 15 mm Hg

Compound: CC[C@@H]1C(=O)OC[C@@H]1Cc1cncn1C [pilocarpine nitrate, reference compound]
- Duration of effect [6, 9]: 120 min
- Max. response Δ IOP [6, 9]: -5.0 mm Hg
- Time to max. response [6, 9]: 30 min

Compound: H-Asn-Gly-Gly-Val-Cys(Acm)-NH2 (H-NGGVC(Acm)-NH2; also: acetate salt) [AsnGlyGlyValCys(Acm)NH2]
- IOP lowering efficiency in relation to Timolol ([4]; 0.5% peptide): 150%
- Pressure after 5 days of stress (Treatment starts) ([4]; 0.5% peptide group): 32.0 mm Hg
- Pressure after 10 days of stress (5 days of treatment) [4, 10]: 16.5 mm Hg
- Initial Pressure (Unstressed) [4, 10]: 19.0 mm Hg
- Change in IOP ([4]; 0.5% peptide): -15.5 mm Hg
- Pressure after 5 days ([4]; 0.1% peptide group): 28 mm Hg
- Initial Pressure ([4]; 0.1% peptide group): 18 mm Hg
- Pressure after 10 days (5 days of treatment) ([4]; 0.1% solution): 15.5 mm Hg
- Pressure after 5 days ([4]; 1% peptide group): 32 mm Hg
- Initial Pressure ([4]; 1% peptide group): 21 mm Hg
- Pressure after 10 days (5 days of treatment) ([4]; 1% solution): 18 mm Hg
- Change in IOP After 21/2 days, Absolute ([5]; Example 7, 20 mg in 0.6 ml saline, 60 μl four times daily for 2.5 days, five stress units): -4.7 mm/Hg
- Change in IOP After 21/2 days, Relative to Control ([5]; Example 7, relative to 0.9% saline): -9.2 mm/Hg
- Change in pressure [5]: 0 mm Hg
- Pressure after 5 1/5 [5]: 14 mm Hg
- Initial Pressure [5]: 14 mm Hg
- Duration of effect ([6]; Example 11, 0.5% solution): 120 min
- Time to max. response ([6]; Example 11, 0.5% solution): 30 min
- Max. response Δ IOP ([6]; Example 11, 0.5% solution, IOP followed 3 hours): -5.0 mm Hg
- Duration of effect ([6]; Example 12, Conc. 0.25%): 80 min
- Max resp. Δ IOP ([6]; Example 12, Conc. 0.25%): -2.0 mm Hg
- Time to max. resp. ([6]; Example 12, Conc. 0.25%): 30 min
- AUC ([6]; Example 12, Conc. 0.25%): 160 mm Hg×min
- Duration of effect ([6]; Example 12, Conc. 0.5%): 120 min
- Max resp. Δ IOP ([6]; Example 12, Conc. 0.5%): -5.0 mm Hg
- Time to max. resp. ([6]; Example 12, Conc. 0.5%): 30 min
- AUC ([6]; Example 12, Conc. 0.5%): 360 mm Hg×min
- Duration of effect ([6]; Example 12, Conc. 1.0%): 120 min
- Max resp. Δ IOP ([6]; Example 12, Conc. 1.0%): -4.0 mm Hg
- Time to max. resp. ([6]; Example 12, Conc. 1.0%): 30 min
- AUC ([6]; Example 12, Conc. 1.0%): 410 mm Hg×min
- cell growth and ultrastructure [7, 11]: normal growth and ultrastructure
- effect on collagen and fibronectin synthesis [7, 11]: no effect
- uptake of glycosamines ([7]; cultured bovine trabecular meshwork cells): marked and significant decrease
- penetration through tissue [8]: found to penetrate both tissues
- penetration through tissue (anterior sclera): found to penetrate both tissues
